# Reference: patent US20030232101A1, “Topical formulations of resorcinols and cannibinoids and methods of use” (Immugen Pharmaceuticals, Inc., priority 2002, published 2003)
# Key:
# Assay type in all cases: cell-based
# [1] = tested on: HIV-1; assay: HeLa CD4 LTR β-gal HIV-1 attachment assay (Experimental Example 1); conditions: Human immunodeficiency virus 1, HeLa
# [2] = tested on: HeLa CD4 LTR β-gal cells; assay: Compound toxicity in the attachment assay, sister plates, MTS dye reduction
# Description: (§1) At assay termination the assay plates were stained with the soluble tetrazolium-based dye MTS (CellTiter96® Reagent Promega) to determine cell viability and quantify compound toxicity. MTS is metabolized by the mitochondria enzymes of metabolically active cells to a soluble formazan product, allowing the rapid quantitative analysis cell viability and compound cytotoxicity. […] At termination of the assay 20 μL of MTS reagent was added per well and incubated for 4 h at 37° C. Adhesive plate sealers were used in place of the lids, the sealed plate was inverted several times to mix the soluble formazan product and the plate was read spectrophotometrically at 490 nm with a Molecular Devices Vmax plate reader.
# The attachment assay was performed with the HeLa CD4 LTR β-gal cells available from the AIDS Research and Reference Reagent Repository. […] HeLa CD4 LTR β-gal cells express cell surface CD4 and contain an LTR β-galactosidase reporter construct. Upon infection either the Tat protein incorporated into the virion or new Tat produced following virus integration and transcription trans-activates the LTR β-gal reporter, leading to expression of the β-galactosidase enzyme. HeLa CD4 LTR β-gal cells are routinely cultured with the required selection antibiotics and screened for mycoplasma contamination. Twenty-four h prior to initiation of the assay cells were trypsinized, counted and 1×10^4 cells placed in a 0.2 cm well in media without selection antibiotics. […] A known titer of virus was then added to the wells and the incubation continued for 1 h. At the end of the incubation the wells were washed 6 times with media and the culture continued for 48 h. At 48 h the wells were washed one time with PBS and β-galactosidase enzyme expression determined by chemiluminescence per manufacturers instructions (Tropix Gal-screen™, Tropix, Bedford, Mass.). Compound toxicity was monitored on sister plates using MTS dye reduction.
# [3] = tested on: interaction of HIV gp 120 with CD4 (HeLa CD4 LTR β-gal / HL2/3 cell fusion); assay: HeLa CD4 LTR β-gal/HL2/3 HIV-1 fusion assay (Experimental Example 1); conditions: Human immunodeficiency virus 1, HeLa, 48 h, read-out: Antiviral Activity IC50
# Description: This assay uses the HeLa CD4 LTR β-gal and HL2-3 cells available from the AIDS Research and Reference Reagent Repository. The fusion assay utilizes HeLa CD4 LTR β-gal cells with HL2/3 cells as a fusion partner via the interaction of HIV gp 120 with CD4. HL2/3 cells express HIV-1 Env on their cell surface and contain an HIV-1 Tat expression cassette. Upon syncytium formation and plasma membrane fusion, cytoplasmic mixing of the HL2/3 and HeLa CD4 LTR b-gal cell contents results in the transactivation of the LTR and β-Galactosidase expression is then directly related to […] cell membrane fusion. Thus, these two mechanistic assays can be used to confirm and identify a virus entry-based target of the compound. Additionally, because the attachment assay uses cell-free virus this assay can be used to show applicability to cell-free virus transmission.
# (§2) Twenty-four h prior to initiation of the assay cells were trypsinized, counted and 5×10^3 cells placed in a 0.2 cm well in media without selection antibiotics. To initiate the fusion assay HeLa CD4 LTR β-gal (5×10^3 cells per 0.2 cm well) were incubated with compound for 1 h at 37° C. HL2/3 cells (5×10^3) were added to the 0.2 cm well and the incubation continued for 48 h. At 48 h the wells were washed 1 time with PBS and β-galactosidase enzyme expression determined by chemiluminescence per manufacturers instructions (Tropix Gal-screen™, Tropix, Bedford, Mass.). Compound toxicity was monitored on sister plates using MTS dye reduction.
# In addition to assessing inhibition of attachment with HeLa CD4 LTR β-gal cells a virus fusion assay was perfoed using HeLa CD4 LTR β-gal and HL2/3 cells. No timed addition of compound was employed, but rather the assay was performed to verify the effects of the compounds on the HeLa CD4 LTR β-gal cells β-galactosidase expression.
# [4] = tested on: HeLa CD4 LTR β-gal cells; assay: Compound toxicity in the fusion assay, sister plates, MTS dye reduction; conditions: no timed addition; 48 h
# Description: as §1, §2
# [5] = tested on: IIIB strain of HIV-1; assay: Virus attachment assay, HeLa CD4 LTR β-gal cells (Experimental Example 2); conditions: Human immunodeficiency virus 1, IIIB, HeLa, read-out: Attachment Assay IC50
# Description: (§3) This assay detects compounds that block virus attachment using HeLa CD4 LTR β-gal cells. HeLa CD4 LTR β-gal cells were cultured with selection antibiotics. Twenty-four h prior to initiation of the assay, the cells were trypsinized, counted and plated in a 0.2 cm well in media without selection antibiotics. At 24 h media is removed and compound in media placed on the cells and incubated for 15 min at 37° C. A known titer of the IIIB strain of HIV-1 was then added to the wells and the incubation continued for 1 to 2 h. At the end of the incubation the wells were washed 2 times with media and the culture continued for 40 to 48 h. At termination of the assay, media is removed and β-galactosidase enzyme expression determined by chemiluminescence per manufacturer's instructions (Tropix Gal-screen, Bedford Mass.). Compound toxicity is monitored on a sister plate by XTT or MTS dye reduction. All determinations are performed in triplicate with serial_Log10 dilution of the test materials.
# [6] = tested on: HeLa CD4 LTR β-gal cells; assay: Compound toxicity in the attachment assay, sister plate, XTT or MTS (Example 2)
# Description: as §3, with “materials. The virus adsorption interval of 1 to 2 h was sufficiently short that AZT, which requires phosphorylation to achieve its active tri-phosphate form (AZT-TTP), is not active in this assay.” for “materials.”
# [7] = tested on: cell-to-cell fusion mediated by HIV-1 Env and CD4; assay: Fusion assay, HeLa CD4 LTR β-gal and HL2/3 cells (Experimental Example 2); conditions: Human immunodeficiency virus 1, HL2/3, read-out: Fusion Assay IC50
# Description: (§4) The fusion assay assesses the ability of compounds to block cell-to-cell fusion mediated by HIV-1 Env and CD4 expressed on separate cells. This assay is sensitive to inhibitors of both the gp 120/CD4 interaction and inhibitors of the X4 coreceptor. HeLa CD4 LTR β-gal cells were plated in microtiter wells and diluted compounds are added and allowed to incubate at 37° C. for 1 hr prior to the addition of HL2/3 cells. The incubation was then continued for 40 to 48 h, after which fusion is monitored by measurement of β-galactosidase enzyme expression, detectable by chemiluminescence (Tropix Gal-screen, Tropix, Bedford, Mass.). Compound toxicity is monitored on a sister plate using XTT or MTS dye reduction. All determinations are performed in triplicate with serial_Log10 dilution of the test materials.
# [8] = tested on: HeLa CD4 LTR β-gal cells; assay: Compound toxicity in the fusion assay, sister plate, XTT or MTS (Example 2)
# Description: as §4
smiles,measurement,setting,value
"COc1cc(-c2ccc(/N=N/c3ccc4c(S(=O)(=O)O)cc(S(=O)(=O)O)c(N)c4c3O)c(OC)c2)ccc1/N=N/c1ccc2c(S(=O)(=O)O)cc(S(=O)(=O)O)c(N)c2c1O [CSB, Chicago Sky Blue, reference compound]",IC50,"[1]; Experiment 1, pretreat 0 h",1.1 µg/mL
same,IC50,"[1]; Experiment 1, pretreat 4 h",1.71 µg/mL
same,IC50,"[1]; Experiment 1, pretreat 24 h",1.3 µg/mL
same,IC50,"[1]; Experiment 2, pretreat 0 h",0.17 µg/mL
same,IC50,"[1]; Experiment 2, pretreat 4 h",2.11 µg/mL
same,IC50,"[1]; Experiment 2, pretreat 24 h",4.7 µg/mL
same,TC50,"[2]; Experiment 1, pretreat 0 h",>10 µg/mL
same,TC50,"[2]; Experiment 1, pretreat 4 h",>10 µg/mL
same,TC50,"[2]; Experiment 1, pretreat 24 h",>10 µg/mL
same,TC50,"[2]; Experiment 2, pretreat 0 h",>10 µg/mL
same,TC50,"[2]; Experiment 2, pretreat 4 h",>10 µg/mL
same,TC50,"[2]; Experiment 2, pretreat 24 h",>10 µg/mL
same,IC50,[3],1.75 µg/mL
same,TC50,[4],>10 µg/mL
same,IC50,[5],0.63 µg/mL
same,Attachment Assay TC50,[6],>10 µg/mL
same,IC50,[7],0.41 µg/mL
same,Fusion Assay TC50,[8],>100 µg/mL
